# Experimental data as given in patent US8664275B2, “Crystalline form of Bimatoprost, preparation method and use thereof” (Shanghai Techwell Biopharmaceutical Co., Ltd., priority 2009, dated 2014).
# Experiment: Comparison of stability: sealed storage at 40° C., HPLC purity
# Type: physicochemical
# Details: for degradation in stability test: sealed storage for 4 days at 40° C.
# Excerpt: The crystalline form A of Bimatoprost of the invention has specific stability, which is favorable for storage. The inventors compare the stability of the crystalline form A prepared by the method of the invention with that of the crystalline form B prepared in the prior art by stability test. […] Degradation products of the crystalline form B include a compound II and a compound III. […] As used herein, the term “HPLC purity” refers to the percentage of peak area of the compound as shown in formula I that is subject to HPLC detection and then area normalization according to the obtained chromatogram in the total peak area. The HPLC detection method is as follows: Chromatographic column: 4.6×150 mm 3 μm C18 column; column temperature: 35° C.; mobile phase: A: acetonitrile: water (20 mM potassium phosphate buffer solution; pH=2.8) 20:80; B: acetonitrile: water (20 mM potassium phosphate buffer solution; pH=2.8) 40:60; gradient elution conditions: A:B=100: 0, 1 min; A:B=100:0-40:60, 16 min; A:B=40:60, 4 min; A:B=40:60-100:0, 1 min. Flow rate: 1 ml/min; main peak retention time: around […]; sample volume 15 μl; column temperature: 35° C.±5° C.; detection wavelength: 210 nm; running time: 40 min. A sample of the crystal A of Bimatoprost prepared by Example 4 was taken (0.8 g; HPLC purity: 99.7%) and divided into 4 parts of equal amount; and the 4 parts were respectively hermetically placed under 40° C. for 1 day, 2 days, 3 days and 4 days and then sampled for analysis, wherein HPLC purity was 99.7%, 99.7%, 99.7% and 99.7% respectively. A sample of the crystal B of Bimatoprost prepared by Example 2 was taken (0.8 g; HPLC purity: 99.6%) and divided into 4 parts of equal amount; and the 4 parts were respectively hermetically placed under 40° C. for 1 day, 2 days, 3 days and 4 days and then sampled for analysis, wherein HPLC purity was 99.4%, 99.2%, 99.1% and 98.7% respectively.
"HPLC purity (hermetically placed under 40° C. for 1 day, listed as crystal B of Bimatoprost) [%]","HPLC purity (hermetically placed under 40° C. for 2 days, listed as crystal B of Bimatoprost) [%]","HPLC purity (hermetically placed under 40° C. for 3 days, listed as crystal B of Bimatoprost) [%]","HPLC purity (hermetically placed under 40° C. for 4 days, listed as crystal B of Bimatoprost) [%]","HPLC purity (sample before storage (initial), listed as crystal B of Bimatoprost) [%]",degradation in stability test,"HPLC purity (hermetically placed under 40° C. for 1 day, listed as crystal A of Bimatoprost) [%]","HPLC purity (hermetically placed under 40° C. for 2 days, listed as crystal A of Bimatoprost) [%]","HPLC purity (hermetically placed under 40° C. for 3 days, listed as crystal A of Bimatoprost) [%]","HPLC purity (hermetically placed under 40° C. for 4 days, listed as crystal A of Bimatoprost) [%]","HPLC purity (sample before storage (initial), listed as crystal A of Bimatoprost) [%]",Compound
99.4,99.2,99.1,98.7,99.6,obviously degrades,,,,,,"CCNC(=O)CCC/C=C\C[C@@H]1[C@@H](/C=C/[C@@H](O)CCc2ccccc2)[C@H](O)C[C@@H]1O [crystalline form B, (Z)-7-[(1R,2R,3R,5S)-3,5-dihydroxyl-2-[(E,3S)-3-hydroxyl-5-phenylpent-1-enyl]cyclopentyl]-N-ethylhept-5-eneamide]"
,,,,,does not degrade,99.7,99.7,99.7,99.7,99.7,"CCNC(=O)CCC/C=C\C[C@@H]1[C@@H](/C=C/[C@@H](O)CCc2ccccc2)[C@H](O)C[C@@H]1O [crystalline form A, (Z)-7-[(1R,2R,3R,5S)-3,5-dihydroxyl-2-[(E,3S)-3-hydroxyl-5-phenylpent-1-enyl]cyclopentyl]-N-ethylhept-5-eneamide]"
